Source: ChEMBL document CHEMBL1800021, “Antineoplastic activity of the thiazolo[5,4-b]quinoline derivative D3CLP in K-562 cells is mediated through effector caspases activation” (Eur J Med Chem, 2011)
Activity calls are given as the source filed them. The rule behind the calls is not given here.

Tests used:
K562 [1] = test: Induction of cell cycle arrest in human K562 cells assessed as accumulation at G2/M phase at 0.25 uM after 6 hrs by propidium iodide staining-based FACS analysis; assay type: functional
K562 [2] = test: Induction of cell cycle arrest in human K562 cells assessed as complete arrest at G2/M phase at 0.25 uM after 12 hrs by propidium iodide staining-based FACS analysis; assay type: functional
K562 [3] = test: Induction of apoptosis in human K562 cells assessed as chromatin condensation at 0.25 uM after 24 to 48 hrs by TUNEL assay; assay type: functional, cell-based
K562 [4] = test: Induction of apoptosis in human K562 cells assessed as appearance of apoptotic bodies at 0.25 uM after 24 to 48 hrs by TUNEL assay; assay type: functional, cell-based
K562 [5] = test: Cell cycle arrest in human K562 cells assessed as accumulation at G2/M phase at 7.8 uM after 6 hrs by propidium iodide staining-based FACS analysis; assay type: functional
K562 [6] = test: Induction of apoptosis in human K562 cells assessed as DNA fragmentation at 7.8 uM after 12 to 24 hrs by TUNEL assay; assay type: functional, cell-based
K562 [7] = test: Induction of apoptosis in human K562 cells assessed as chromatin condensation at 7.8 uM after 12 to 24 hrs by TUNEL assay; assay type: functional, cell-based
[8] = Cytotoxicity against human PMBC after 48 hrs by modified MTT assay
K562 [9] = test: Induction of apoptosis in human K562 cells assessed as subdiploid peak at 7.8 uM after 12 to 24 hrs by propidium iodide staining-based FACS analysis; assay type: functional, cell-based
K562 [10] = test: Cytotoxicity against human K562 cells after 48 hrs by modified MTT assay; assay type: functional, cell-based; conditions: K562, 48 h
K562 [11] = test: Ratio of IC50 for human PMBC to IC50 for human K562 cells
K562 [12] = test: Induction of apoptosis in human K562 cells assessed as increase in effector caspases activity using Ac-DEVD-AMC as substrate after 3 to 24 hrs by fluorimetry; assay type: functional, cell-based
K562 [13] = test: Induction of apoptosis in human K562 cells assessed as effector caspases activity using Ac-DEVD-AMC as substrate after 48 hrs by fluorimetry; assay type: functional, cell-based

In the case of `CC(=O)O[C@H]1C(=O)[C@@]2(C)[C@H]([C@H](OC(=O)c3ccccc3)[C@]3(O)C[C@H](OC(=O)[C@H](O)[C@@H](NC(=O)c4ccccc4)c4ccccc4)C(C)=C1C3(C)C)[C@]1(OC(C)=O)CO[C@@H]1C[C@@H]2O`, the Activity (K562 [1]) is reported as “Active”, the Activity (K562 [2]) is reported as “Active” and the Activity (K562 [3]) is reported as “Active”. For the same compound, the Activity (K562 [4]) was “Active”.
In the case of `CCN(CC)CCCNc1nc2c(Nc3cccc(Cl)c3)c3ccccc3nc2s1`, the Activity (K562 [5]) is reported as “Active”, the Activity (K562 [6]) is reported as “Active” and the Activity (K562 [7]) is reported as “Active”. The IC50 [8] was 28.7 µM, the Activity (K562 [9]) was “Active” and the IC50 (K562 [10]) was 7.82 µM. For the same compound, the “Ratio IC50” value (K562 [11]) was 4, the Activity (K562 [12]) was “Active” and the Activity (K562 [13]) was “inactive”.
